The results in this text go back to patent US20210246115A1 (Bioimics AB, priority 2017, published 2021).

Assay [1] concerns Staphylococcus aureus subsp. aureus (ATCC29213). The assay is described as follows: MIC, broth microdilution (CLSI), Staphylococcus aureus ATCC29213. Particulars: Staphylococcus aureus. The assay is classed as cell-based.
The test system of assay [2] is E. coli RNase P RNA, M1 RNA. The assay is described as follows: Inhibition of bacterial RNase P activity, IC50 determination (cleavage of pATSerUG by M1 RNA). The assay is classed as biochemical. Particulars: NI: No inhibition.
Assay [3] concerns Escherichia coli (ATCC25922). The assay is described as follows: MIC, broth microdilution (CLSI), Escherichia coli. As to conditions: Escherichia coli, ATCC25922, read-out: E. coli ATCC 25922 MIC, Table XIII. Background: In broth dilution the organism is exposed to a series of concentrations in liquid medium.
[4] abbreviates: ATCC29213, Table XIII, read-out: S. aureus ATCC 29213 MIC.
[5] abbreviates: ATCC29213, read-out: S. aureus ATCC 29213 MIC, Table XIII.

SMILES strings stand for the structures. Counter-ions that a name gives are not always drawn. Like-named read-outs stand apart in the source and are kept apart here. Bounds are passed on as bounds.

As usually defined, the MIC is the lowest concentration found to suppress growth. In general, IC50 refers to the concentration needed to halve the response being measured.

Regarding `Cc1cccc(C(CCNC2CCC(N)CC2)c2cn(CC3CCCCC3)c3ccc([N+](=O)[O-])cc23)c1` [Compound 425, (1S,4S)-N1-(3-(1-(cyclohexylmethyl)-5-nitro-1H-indol-3-yl)-3-(m-tolyl)propyl) cyclohexane-1,4-diamine hydrochloride salt], the minimum inhibitory concentration (MIC) in assay [1] (setting [4]) came out at 2 µg/mL; in assay [3] it was 8 µg/mL. In addition, the IC50 in assay [2] is 12 µM.

Regarding `CC(=O)N1CCC(NCCC(c2cccc(C)c2)c2cn(C3CCCCC3)c3ccccc23)CC1.Cl` (centres unmarked) [Compound 373, 1-(4-((3-(1-cyclohexyl-1H-indol-3-yl)-3-(m-tolyl)propyl)amino)piperidin-1-yl) ethan-1-one salt], the MIC in assay [1] (setting [4]) was 8 µg/mL; in assay [3] it was over 128 µg/mL. The same compound came in with an IC50 in assay [2] of 120 µM.

Turning to `CCCCCCCCn1cc(C(CCNCCCN)C2CCCCC2)c2cc(C#N)ccc21.Cl.Cl` (centres unmarked) [Compound 427, 3-(3-((3-aminopropyl)amino)-1-cyclohexylpropyl)-1-octyl-1H-indole-5-carbonitrile hydrochloride salt], the MIC in assay [1] (setting [4]) came out at 2 µg/mL; in assay [3], 4 µg/mL. In assay [2], this compound displayed an IC50 of 4.4 µM.

In the case of `Cl.Cl.N[C@H]1CC[C@H](NCCCc2cn(C3CCCCC3)c3ccc(C4CCCCC4)cc23)CC1` [Compound 398, (1r,4r)-N1-(3-(1,5-dicyclohexyl-1H-indol-3-yl)propyl)cyclohexane-1,4-diamine hydrochloride salt], the results for the MIC in assay [1] (setting [4]) and in assay [3] were 2 µg/mL and 4 µg/mL, respectively. For the same compound, half-maximal inhibition in assay [2] (IC50) was put at 9 µM.

On to `Cc1cccc(C(CCNC2CCNCC2)c2cn(C3CCCC3)c3ccccc23)c1.Cl.Cl` (centres unmarked) [Compound 333, N-(3-(1-cyclopentyl-1H-indol-3-yl)-3-(m-tolyl)propyl)piperidin-4-amine hydrochloride salt], for which the minimum inhibitory concentration (MIC) in assay [1] (setting [4]) amounted to 16 µg/mL; in assay [3], 8 µg/mL. In assay [2], inhibition was half-maximal at 89 µM (IC50).

Turning to `Cc1cccc(C(CCNC2CCNCC2)c2cn(C3CCCCC3)c3ccccc23)c1` (centres unmarked) [Compound 309, N-(3-(1-cyclohexyl-1H-indol-3-yl)-3-(m-tolyl)propyl)piperidin-4-amine hydrochloride salt], the minimum inhibitory concentration (MIC) in assay [1] (setting [5]) amounted to 8 µg/mL; in assay [3], 4 µg/mL. The compound also yielded a concentration for half-maximal inhibition (IC50) in assay [2] of 39 µM.

`Cc1cccc(C(CCNC2CCN(C(=N)N)CC2)c2cn(C3CCCCC3)c3ccccc23)c1.Cl` (centres unmarked) [Compound 353, 4-((3-(1-cyclohexyl-1H-indol-3-yl)-3-(m-tolyl)propyl)amino)piperidine-1-carboximidamide hydrochloride salt]: the MIC in assay [1] (setting [4]) turned out to be 4 µg/mL; in assay [3], 32 µg/mL. Also, half-maximal inhibition in assay [2] (IC50) required 19 µM.

`NCCCNC1CCCC(c2cn(C3CCCCC3)c3ccc(-c4cccc(OC(F)(F)F)c4)cc23)C1` (centres unmarked) [Compound 404, N1-(3-(1-cyclohexyl-5-(3-(trifluoromethoxy)phenyl)-1H-indol-3-yl)cyclohexyl)propane-1,3-diamine hydrochloride salt]: the MIC in assay [1] (setting [5]) came out at 4 µg/mL; in assay [3], 8 µg/mL. Also, half-maximal inhibition in assay [2] (IC50) was put at 4.8 µM.

For `CCCCCCCCn1cc(C(CCNCCCN)C2CCCCC2)c2ccccc21.Cl.Cl` (centres unmarked) [Compound 417, N1-(3-cyclohexyl-3-(1-octyl-1H-indol-3-yl)propyl)propane-1,3-diamine hydrochloride salt], the MIC in assay [1] (setting [4]) amounted to 2 µg/mL; in assay [3] it was 4 µg/mL. The same compound yielded an IC50 in assay [2] of 2.8 µM.

Turning to `Cl.Cl.N#Cc1ccc2c(c1)c(C(CCNCCCN)C1CCCCC1)cn2C1CCCCC1` (centres unmarked) [Compound 382, 3-(3-((3 - aminopropyl)amino)-1-cyclohexylpropyl)-1-cyclohexyl-1H-indole-5-carbonitrile hydrochloride salt], the MIC in assay [1] (setting [4]) and in assay [3] was 4 µg/mL each time. The compound also came in with an IC50 in assay [2] of 20 µM.

For `Cl.Cl.NCCCNCCC(c1cn(C2CCCCC2)c2ccc(Br)cc12)C1CCCCC1` (centres unmarked) [Compound 429, N1-(3-(5-bromo-1-cyclohexyl-1H-indol-3-yl)-3-cyclohexylpropyl) propane-1,3-diamine hydrochloride salt], the results for the MIC in assay [1] (setting [4]) and in assay [3] were 2 µg/mL and 4 µg/mL, respectively. Further, in assay [2], the IC50 came out at 11 µM.

`Cl.Cl.NCCCNCCC(c1cccc(F)c1)c1cn(C2CCCCC2)c2ccccc12` (centres unmarked) [Compound 344, N1-(3-(1-cyclohexyl-1H-indol-3-yl)-3-(3-fluorophenyl)propyl) propane-1,3-diamine hydrochloride salt]: the figures for the MIC in assay [1] (setting [4]) and in assay [3] were 8 µg/mL and 4 µg/mL, respectively. Further, half-maximal inhibition in assay [2] (IC50) was put at 52 µM.

Turning to `Cc1cccc(C(CCNCCCN)c2cn(C3CCCCC3)c3ccccc23)c1.Cl.Cl` (centres unmarked) [Compound 310, N1-(3-(1-cyclohexyl-1H-indol-3-yl)-3-(m-tolyl)propyl)propane-1,3-diamine hydrochloride salt], the MIC in assay [1] (setting [4]) and in assay [3] was 4 µg/mL each time. In addition, in assay [2] (hydrochloride salt), the IC50 came to 18 µM.

`Cl.Cl.NCCCNCCC(c1cc(Cl)cc(Cl)c1)c1cn(C2CCCCC2)c2ccccc12` (centres unmarked) [Compound 349, N1-(3-(1-cyclohexyl-1H-indol-3-yl)-3-(3,5-dichlorophenyl)propyl) propane-1,3-diamine hydrochloride salt]: the MIC in assay [1] (setting [4]) amounted to 2 µg/mL; in assay [3], 4 µg/mL. The compound also had an IC50 in assay [2] of 16 µM.

With `Cl.Cl.NCCCNCCC(c1cccc(Cl)c1)c1cn(C2CCCCC2)c2ccccc12` (centres unmarked) [Compound 356, N1-(3-(3-chlorophenyl)-3-(1-cyclohexyl-1H-indol-3-yl)propyl) propane-1,3-diamine hydrochloride salt], the MIC in assay [1] (setting [4]) and in assay [3] was 4 µg/mL each time. In assay [2], this compound yielded an IC50 of 37 µM.

Take `Cc1cccc(C(CCNCC(N)CN)c2cn(C3CCCCC3)c3ccccc23)c1` (centres unmarked) [Compound 394, N1-(3-(1-cyclohexyl-1H-indol-3-yl)-3-(m-tolyl)propyl)propane-1,2,3-triamine hydrochloride salt]: the MIC in assay [1] (setting [5]) is 8 µg/mL; in assay [3] it was 32 µg/mL. The IC50 in assay [2] is 15 µM.

Consider `Cc1cccc(C(CCNC2CCNCC2)c2cn(C3CC4CCC3C4)c3ccccc23)c1` (centres unmarked) [Compound 323, hydrochloride salt], for which the MIC amounted to 8 µg/mL in assay [1] (setting [5]) and 4 µg/mL in assay [3]. Also, the half-inhibitory concentration (IC50) in assay [2] was determined as 42 µM.

For the compound `Cc1cccc(CC(CCNC2CCNCC2)c2cn(C3CCCCC3)c3ccccc23)c1` (centres unmarked) [Compound 418, N-(3-(1-cyclohexyl-1H-indol-3-yl)-4-(m-tolyl)butyl)piperidin-4-amine hydrochloride salt], the MIC in assay [1] (setting [5]) turned out to be 8 µg/mL; in assay [3], 4 µg/mL. In addition, the IC50 in assay [2] was determined as 17 µM.

Regarding `Cl.Cl.NCCCNCCC(c1cccc(C(F)(F)F)c1)c1cn(C2CCCCC2)c2ccccc12` (centres unmarked) [Compound 351, N1-(3-(1-cyclohexyl-1H-indol-3-yl)-3-(3-(trifluoromethyl)phenyl)propyl)propane-1,3-diamine hydrochloride salt], the MIC in assay [1] (setting [4]) and in assay [3] was 4 µg/mL throughout. The same compound came in with an IC50 in assay [2] of 16 µM.

As for `COc1cccc(C(CCNCCCN)c2cn(C3CCCCC3)c3ccc(C#N)cc23)c1` (centres unmarked) [Compound 402, 3-(3-((3-aminopropyl)amino)-1-(3-methoxyphenyl)propyl)-1-cyclohexyl-1H-indole-5-carbonitrile hydrochloride salt], the MIC in assay [1] (setting [5]) came to 8 µg/mL; in assay [3], 16 µg/mL.
